In US9120762B2, “Salts of bicyclo-substituted pyrazolon azo derivatives, preparation method and use thereof” (Jiangsu Hengrui Medicine Co., Ltd., priority 2009, dated 2015):
Values after ≈ are worked out from the molar mass of the structure shown. Like-named read-outs stand apart in the source and are kept apart here.

How the values were obtained:
[1] = Pharmacokinetics assay in rats; type: in vivo, SD rats; details: SD rats, intragastric, 50 mg/Kg (as free acid); for Vd/F / AUC / CL/F / half-life / MRT / Cmax / Tmax: both sexes, rat, po; for Vd/F: read-out: Apparent Distribution Volume Vz/F; for AUC: read-out: Area Under Curve AUC; for CL/F: read-out: Clearance CL/F (converted); for half-life: read-out: Half-Life t½ (converted); for MRT: read-out: Mean Residence Time MRT; for Cmax: read-out: Plasma Conc. Cmax; for Tmax: read-out: Time to peak Tmax
Description: The compounds of the present disclosure were administrated intragastrically to rats to determine the drug concentration in plasma at different time points by HPLC-UV. The pharmacokinetic behavior of the compounds of the present disclosure was studied and evaluated in rats. […] Healthy adult SD rats, male and female in half, were purchased from SINO-BRITSH SIPPR/BK LAB.ANIMAL LTD., Colo., License number: SCXK (Shanghai) 2003-0002 The test compound was diluted with 1% sodium carboxymethyl cellulose to 5 mg/mL (calculated as the free acid form) of suspension before use. Healthy adult SD rats, male and female in half, were divided into 23 groups. […] The plasma samples were stored at −20° C. until analysis. The rats were fed 2 hours after administration. […] Then the mixture was mixed for 3 minute using a vortexer and centrifuged for 10 minutes at 13,500 rpm. 40 μL of the supernatant was analyzed by HPLC-UV. The compartmental model of pharmacokinetics was fitted for the test compounds and the major pharmacokinetic parameters were calculated in which Cmax and tmax were the actually measured values.

[2] = Solubility assay in water, 0.1% hydrochloric acid and methanol; type: physicochemical
Description: The solubility was characterized by:
The term “very soluble” refers to that 1 g (mL) of solute can be dissolved in less than 1 mL of solvent;
The term “freely soluble” refers to that 1 g (mL) of solute can be dissolved in from 1 mL to 10 mL, not including 10 mL of solvent;
The term “soluble” refers to that 1 g (mL) of solute can be dissolved in from 10 mL to 30 mL, not including 30 mL of solvent;
The term “sparingly soluble” refers to that 1g (mL) of solute can be dissolved in from 30 mL to 100 mL, not including 100 mL of solvent;
The term “slightly soluble” refers to that 1g (mL) of solute can be dissolved in from 100 mL to 1000 mL, not including 1000 mL of solvent;
The term “very slightly soluble” refers to that 1g (mL) of solute can be dissolved in from 1000 mL to 10000 mL, not including 10000 mL of solvent;
The term “practically insoluble or insoluble” refers to that 1g (mL) of solute cannot be dissolved completely in 10000 mL of solvent.

## CC1=NN(c2ccc(C)c(C)c2)C(=O)/C1=N\Nc1cccc(-c2cccc(C(=O)O)c2)c1O [Eltrombopag, eltrombopag, reference compound]
[1]; SD, plasma, 50 mg/kg
  Vd/F: 0.95 ± 0.42 L/kg
  AUC: 680 ± 255 µg·h/mL
  CL/F: 1.48 mL/min/kg
  half-life: 7.82 ± 1.34 h
  MRT: 11.2 ± 2.6 h
  Cmax: 61800 ± 18700 ng/mL
  Tmax: 5.5 ± 1 h

## CC1=NN(c2ccc3c(c2)CCC3)C(=O)/C1=N\Nc1cccc(-c2cccc(C(=O)O)c2)c1O.CCNCC.CCNCC [Example 2, (Z)-2′-hydroxy-3′-[N′-(1-indan-5-yl-3-methyl-5-oxo-1,5-dihydro-pyrazol-4-ylidene)-hydrazino]-biphenyl-3-carboxylic acid bis-(diethylamine)]
[1]; in vivo
  Vd/F: 0.83 ± 0.16 L/kg
  AUC: 833 ± 64 µg·h/mL
  CL/F: 1 mL/min/kg
  half-life: 9.55 ± 1.44 h
  MRT: 11.1 ± 0.76 h
  Cmax: 83900 ± 11200 ng/mL
  Tmax: 5 ± 1.16 h

## CC1=NN(c2ccc3c(c2)CCC3)C(=O)/C1=N\Nc1cccc(-c2cccc(C(=O)O)c2)c1O [Example 3, (Z)-2′-hydroxy-3′-[N′-(1-indan-5-yl-3-methyl-5-oxo-1,5-dihydro-pyrazol-4-ylidene)-hydrazino]-biphenyl-3-carboxylic acid bis-(piperazine)]
[2]; 0.1% hydrochloric acid
  solubility: <1 µg/mL
[2]; methanol
  solubility: 1534 µg/mL (≈ 3.38 mM)
[2]; water
  solubility: 2290 µg/mL (≈ 5.04 mM)
[1]; 50 mg/kg
  Area Under Curve AUC: 842 ± 185 µg·h/mL
  Half-Life t½: 8.87 ± 0.78 h
  Mean Residence Time MRT: 13.0 ± 0.9 h
  Plasma Conc. Cmax: 79000 ± 9300 ng/mL
[1]; SD, plasma, 50 mg/kg
  CL/F: 1.03 mL/min/kg
  Tmax: 5.5 ± 1 h

## CC1=NN(c2ccc3c(c2)CCCC3)C(=O)/C1=N\Nc1cccc(-c2ccc(C(=O)O)o2)c1O [Example 7d, (Z)-5-(2-hydroxy-3-{N′-[3-methyl-5-oxo-1-(5,6,7,8-tetrahydro-naphthalen-2-yl)-1,5-dihydro-pyrazol-4-ylidene]-hydrazino}-phenyl)-furan-2-carboxylic acid]
[1]; 50 mg/kg
  Half-Life t½: 7.42 ± 7.19 h
  Plasma Conc. Cmax: 16200 ± 3900 ng/mL
  Time to peak Tmax: 2.5 ± 1.0 h

## CC1=NN(c2ccc3c(c2)CCCC3)C(=O)/C1=N\Nc1cccc(-c2ccc(C(=O)O)o2)c1O [Example 11, (Z)-5-(2-hydroxy-3-{N′-[3-methyl-5-oxo-1-(5,6,7,8-tetrahydro-naphthalen-2-yl)-1,5-dihydro-pyrazol-4-ylidene]-hydrazino}-phenyl)-furan-2-carboxylic acid bis-(piperazine)]
[1]; 50 mg/kg
  Area Under Curve AUC: 270 ± 178 µg·h/mL
  Clearance CL/F: 14.6 ± 24.42 mL/min/kg
  Half-Life t½: 12.1 ± 7.19 h
  Plasma Conc. Cmax: 40200 ± 24300 ng/mL
  Time to peak Tmax: 1.5 ± 0.58 h

## CC1=NN(c2ccc3c(c2)CCC3)C(=O)/C1=N\Nc1cccc(-c2ccc(C(=O)O)o2)c1O.NCCO.NCCO [Example 16, (Z)-5-{2-hydroxy-3-[N′-(1-indan-5-yl-3-methyl-5-oxo-1,5-dihydro-pyrazol-4-ylidene)-hydrazino]-phenyl}-furan-2-carboxylic acid bis-(ethanolamine)]
[1]; SD, plasma, 50 mg/kg
  Vd/F: 6.33 ± 4.57 L/kg
  AUC: 52.4 ± 48 µg·h/mL
  CL/F: 32.3 mL/min/kg
  half-life: 2.08 ± 1.74 h
  MRT: 3.84 ± 1.03 h
  Cmax: 19600 ± 16300 ng/mL
  Tmax: 2 ± 0.82 h

## CC1=NN(c2ccc3c(c2)CCC3)C(=O)/C1=N\Nc1cccc(-c2ccc(C(=O)O)o2)c1O.CCNCC.CCNCC [Example 17, (Z)-5-{2-hydroxy-3-[N′-(1-indan-5-yl-3-methyl-5-oxo-1,5-dihydro-pyrazol-4-ylidene)-hydrazino]-phenyl}-furan-2-carboxylic acid bis-(diethylamine)]
[1]; in vivo
  Vd/F: 8.16 ± 11.1 L/kg
  AUC: 138 ± 33 µg·h/mL
  CL/F: 6.33 mL/min/kg
  half-life: 12.7 ± 14.7 h
  MRT: 14 ± 12 h
  Cmax: 21500 ± 10500 ng/mL
  Tmax: 3.38 ± 3.04 h

## CC1=NN(c2ccc3c(c2)CCC3)C(=O)/C1=N\Nc1cccc(-c2ccc(C(=O)O)o2)c1O [Example 18, (Z)-5-{2-hydroxy-3-[N′-(1-indan-5-yl-3-methyl-5-oxo-1,5-dihydro-pyrazol-4-ylidene)-hydrazino]-phenyl}-furan-2-carboxylic acid bis-(piperazine)]
[2]; 0.1% hydrochloric acid
  solubility: <1 µg/mL
[2]; methanol
  solubility: 6096 µg/mL (≈ 13.7 mM)
[2]; water
  solubility: 2741 µg/mL (≈ 6.17 mM)
[1]; 50 mg/kg
  Area Under Curve AUC: 119 ± 102 µg·h/mL
  Clearance CL/F: 10.5 ± 5.83 mL/min/kg
  Half-Life t½: 3.99 ± 1.60 h
  Mean Residence Time MRT: 5.31 ± 2.64 h
  Plasma Conc. Cmax: 23300 ± 11600 ng/mL
  Time to peak Tmax: 1.63 ± 1.63 h

## CC1=NN(c2ccc3c(c2)CCC3)C(=O)/C1=N\Nc1cccc(-c2csc(C(=O)O)c2)c1O.NCCO.NCCO [Example 19, (Z)-4-{2-hydroxy-3-[N′-(1-indan-5-yl-3-methyl-5-oxo-1,5-dihydro-pyrazol-4-ylidene)-hydrazino]-phenyl}-thiophene-2-carboxylic acid bis-(ethanolamine)]
[1]; SD, plasma, 50 mg/kg
  Vd/F: 5.47 ± 2.72 L/kg
  AUC: 89.2 ± 7.2 µg·h/mL
  CL/F: 14.7 mL/min/kg
  half-life: 5.71 ± 3.68 h
  MRT: 7.85 ± 2.92 h
  Cmax: 20800 ± 17300 ng/mL
  Tmax: 1.81 ± 2.79 h

## CC1=NN(c2ccc3c(c2)CCC3)C(=O)/C1=N\Nc1cccc(-c2csc(C(=O)O)c2)c1O.CCNCC.CCNCC [Example 20, (Z)-4-{2-hydroxy-3-[N′-(1-indan-5-yl-3-methyl-5-oxo-1,5-dihydro-pyrazol-4-ylidene)-hydrazino]-phenyl}-thiophene-2-carboxylic acid bis-(diethylamine)]
[1]; in vivo
  Vd/F: 2.05 ± 0.68 L/kg
  AUC: 275 ± 116 µg·h/mL
  CL/F: 3.5 mL/min/kg
  half-life: 7.24 ± 2.45 h
  MRT: 7.59 ± 1.33 h
  Cmax: 46100 ± 15700 ng/mL
  Tmax: 4.5 ± 1 h

## CC1=NN(c2ccc3c(c2)CCC3)C(=O)/C1=N\Nc1cccc(-c2csc(C(=O)O)c2)c1O [Example 21, (Z)-4-{2-hydroxy-3-[N′-(1-indan-5-yl-3-methyl-5-oxo-1,5-dihydro-pyrazol-4-ylidene)-hydrazino]-phenyl}-thiophene-2-carboxylic acid bis-(piperazine)]
[2]; 0.1% hydrochloric acid
  solubility: <1 µg/mL
[2]; methanol
  solubility: 2416 µg/mL (≈ 5.25 mM)
[2]; water
  solubility: 814 µg/mL (≈ 1.77 mM)
[1]; 50 mg/kg
  Area Under Curve AUC: 380 ± 109 µg·h/mL
  Clearance CL/F: 2.33 ± 0.67 mL/min/kg
  Half-Life t½: 6.86 ± 0.48 h
  Mean Residence Time MRT: 8.61 ± 0.31 h
  Plasma Conc. Cmax: 61100 ± 1380 ng/mL
  Time to peak Tmax: 5.5 ± 1.0 h
